{
  "source": "patent US20240043473A1",
  "about": "“NOOTROPIC PEPTIDES FOR TREATING LYSOSOMAL STORAGE DISEASES” (Phoenix Nest Inc., priority 2021, published 2024)",
  "key": {"[1]": {"tested_on": "Hgsnat^P304L and Hgsnat-Geo MPS IIIC mice", "assay": "Elevated Plus Maze test", "type": "in vivo, mouse", "method": "Method: Elevated plus maze that measures a natural fear of heights reflex of animals. AVP6 was administered intranasally at 50 μg/kg (5 μl/nostril) to the animals 17 h before the experiment.\nThe elevated plus-maze test was performed as follows. Each mouse was placed in the center of the elevated plus maze and allowed to freely explore undisturbed for 10 min. After each testing, the mouse was returned to the home cage and the arena was cleaned with 70% ethanol before the commencement of the next test. Analysis of the behavioral activity (percentage of time spent in the center zone, closed arms, and open arms; as well as the number of open arm entries) was done by the Smart v3.0 software.\n(§1) Starting from 3 weeks of age, WT C57B16 and homozygous Hgsnat^P304L male and female mice were randomly divided in treatment and control groups (6-13 mice/sex/genotype/treatment; see Table I). The control group was daily administered with saline (5 μL to each nostril), while for the treatment group, saline was supplemented with 125 µg of AVP6/mL, which would result in a dose of approximately 50 μg/kg BW/day. The peptide formulation was prepared once, aliquoted and kept frozen at −80° C. until use. At 4 months, all mice were studied by EPM, OF, YM and NOR behavioral tests. Administration of the drug or saline was continued through the days on which the assays were conducted. Then approximately at 5 months 4-5 mice in each group were sacrificed. Their blood plasma was collected, and their tissues were either snap-frozen or fixed and cryopreserved to analyze CNS pathology as described above. For the remaining mice, treatment was continued and their behaviour was studied again at the age of 6 months using OF. NOR and YM tests. Starting from the age of 8 months, Hgsnat^P304L treated and untreated mice were daily studied for the signs of urinary retention. When such signs were detected, the mice were studied by ERG and sacrificed within 1-2 days. Finally, the remaining treated and untreated WT mice were studied by ERG and sacrificed at the end of the study, approximately at 10 months of age."}, "[2]": {"tested_on": "somatosensory cortex and hippocampus of Hgsnat^P304L mice", "assay": "Brain immunohistochemistry after chronic treatment (synaptic markers, astrocytosis, microgliosis, lysosomal puncta)", "type": "in vivo, mouse", "method": "Mouse brains were collected from animals perfused with 4% PFA in PBS and post-fixed in 4% PFA in PBS overnight. Brains were cryopreserved in 30% sucrose for 2 days at 4° C., embedded in Tissue-Tek® OCT Compound and stored at −80° C. Brains were cut in 40 μm-thick sections and stored in cryopreservation buffer (0.05 M sodium phosphate buffer pH 7.4, 15% sucrose, 40% ethylene glycol) at −20° C. pending immunohistochemistry. Mouse brain sections were washed 3 times with PBS and permeabilized/blocked by incubating in 5% bovine serum albumin (BSA), 0.3% Triton X-100 in PBS for 1 h at room temperature. Incubation with primary antibodies, diluted in 1% BSA, 0.3% Triton X-100 in PBS, was performed overnight at 4° C.\nThe mouse brain sections were washed 3 times with PBS and counterstained with Alexa Fluor-labeled secondary antibodies (dilution 1:400) for 2 h at room temperature. After washing 3 times with PBS, the mouse brain sections were treated with TrueBlack® Lipofuscin Autofluorescence Quencher (Biotium, 23007, dilution 1:10) for 1 min, and then again washed 3 times with PBS. The slides were mounted with Prolong Gold Antifade mounting reagent with DAPI (Invitrogen, P36935) and analyzed using Leica DM 5500 Q upright confocal microscope (10×, 40×, and 63× oil objective, N.A. 1.4). Images were processed and quantified using ImageJ 1.50i software (National Institutes of Health. Bethesda, MD, USA) in a blinded fashion. Panels were assembled with Adobe Photoshop.\nas §1\nAfter completion of the behavioural analysis at 4 months, 50% of mice in each group were sacrificed for analysis of CNS pathology and biochemical testing. To study the effect of the treatment on synaptic architecture, we have stained the brain sections for presynaptic (VGLUT1) and postsynaptic (PSD-95, BDNF) markers and quantified their levels in the CA1 area of hippocampi and in layers 3-4 of somatosensory cortex.\nThe terminal CNS pathology was studied using the same set of biomarkers as at 4 months, either by IHC (astrocytosis, microgliosis, synaptic markers SYN1, PSD-95, […], BDNF) or by biochemical (total β-hexosaminidase activity, expression levels of inflammatory cytokines) assays."}, "[3]": {"tested_on": "Hgsnat-Geo and Hgsnat^P304L MPS IIIC mice", "assay": "Novel Object Recognition test", "type": "in vivo, mouse", "settings": "single dose 17 hours before the test"}, "[4]": {"assay": "Preliminary studies of activity and stability of the acetylated peptide"}, "[5]": {"tested_on": "Hgsnat^P304L MPS IIIC mice", "assay": "Open Field test", "type": "in vivo, mouse", "settings": "for Open Field behaviour in WT mice vs saline: chronic daily treatment", "method": "Method: Open field test that explores behaviour of animals in open area. Rodents normally avoid the center of the arena (anxiety reflex) and spend certain time immobile (freezing reflex). […]\nThe open-field test was performed as previously described. Briefly, mice were habituated in the experimental room for 45 mins before the commencement of the test. Each mouse was then gently placed in the center of the open-field arena and allowed to explore for 20 min. The mouse was removed and transferred to its home cage after the test, and the arena was cleaned with 70% ethanol before the commencement of the next test. Analysis of the behavioral activity was done using the Smart video tracking software (v3.0, Panlab Harvard Apparatus), and total distance traveled and percent of time spent in the center zone were measured for hyperactivity and anxiety assessment, respectively.\nas §1\nWe further tested if AVP6 can rescue neurobehavioral deficits associated with synaptic dysfunction in MPS IIIC mice. The early phase of the disease in both Hgsnat-Geo and Hgsnat^P304L mice manifests with reduced anxiety and hyperactivity. Specifically, in an Open Field (OF) test at both 4 months and 6 months, Hgsnat^P304L mice show a significant increase in a total distance traveled, increased time spent at the center of the arena and increased distance traveled in the center of the arena as compared with the WT animals. […] […] Control groups were treated with the same volume of saline."}, "[6]": {"settings": "chronic daily 50 μg/kg BW from 3 weeks, Hgsnat^P304L mice at sacrifice (10-11 months)"}, "[7]": {"settings": "chronic daily intranasal 50 μg/kg BW from 3 weeks, Hgsnat^P304L male and female mice at 4 months"}, "[8]": {"settings": "chronic daily intranasal 50 μg/kg BW from 3 weeks, Hgsnat^P304L mice at 6 months"}, "[9]": {"settings": "single intranasal 50 μg/kg 17 h before test, Hgsnat^P311L (P304L) mice, 4 and 6 months"}},
  "note": "Entries after “also recorded” stand apart in the source; their conditions may differ. No end group written: not given here.",
  "data": [
    {"substance": "AVP6: N-terminally acetylated Semax, a nootropic peptide having the amino acid sequence of MEHFPGP (SEQ ID NO:1) (Ac-MEHFPGP)", "values": [
      {"measurement": "reduced fear (open arm entries, time in open arms), Elevated Plus Maze", "setting": "[1]; chronic daily intranasal 50 μg/kg BW from 3 weeks, Hgsnat^P304L mice at 4 months", "result": "showed no difference from their WT counterparts; also recorded: show the rescue of all above deficits"},
      {"measurement": "Elevated Plus Maze parameters in WT mice", "setting": "[1]; chronic daily treatment, WT mice at 4 months", "result": "no effect of the drug was detected in the WT mice"},
      {"measurement": "reduced fear/anxiety, Elevated Plus Maze", "setting": "[1]; single intranasal 50 μg/kg 17 h before test, Hgsnat-Geo mice, 6 months", "result": "showed a behavior similar to their WT counterparts; also recorded: also rescues reduced anxiety in EPM test"},
      {"measurement": "reduced fear (time spent in open arms, number of open arm entries), Elevated Plus Maze", "setting": "[1]; single intranasal 50 μg/kg 17 h before test, Hgsnat^P311L (P304L) mice, 4 months", "result": "rescues reduced fear; also recorded: showed a behavior similar to their WT counterparts; also recorded: Both parameters are normalized"},
      {"measurement": "levels of synaptic markers VGLUT1, PSD-95 and BDNF in CA1 hippocampus and somatosensory cortex", "setting": "[2]; chronic daily 50 μg/kg BW from 3 weeks, Hgsnat^P304L mice at 5 months", "result": "are rescued"},
      {"measurement": "GFAP+ astrocytes and CD68+ activated microglia in cortex and hippocampus", "setting": "[2]; chronic daily 50 μg/kg BW from 3 weeks, Hgsnat^P304L mice at 5 months, vs saline", "result": "normalizes astrocytosis and microgliosis; also recorded: are reduced"},
      {"measurement": "levels of post-synaptic proteins PSD-95 and BDNF", "setting": "[2]; [6]", "result": "completely recovered; also recorded: are rescued in hippocampus and partially rescued in the somatosensory cortex"},
      {"measurement": "levels of presynaptic proteins GLUT1 (VGLUT1) and SYN1", "setting": "[2]; [6]", "result": "either increased in the AVP6-treated as compared with saline-treated Hgsnat^P304L mice, or remained significantly lower than those in WT animals; also recorded: are rescued in hippocampus and partially rescued in the somatosensory cortex"},
      {"measurement": "levels and sizes of LAMP2+/HS+ or GM2-ganglioside+ lysosomal puncta in cortical/hippocampal neurons", "setting": "[2]; chronic daily 50 μg/kg BW, Hgsnat^P304L mice at 5 months, vs saline", "result": "remained similar"},
      {"measurement": "markers of astrocytosis and microgliosis, GFAP and CD68", "setting": "[2]; chronic daily 50 μg/kg BW, Hgsnat^P304L mice at 10-11 months, vs saline, cortex levels remained above WT", "result": "significantly reduced; also recorded: reduces it; also recorded: reduces levels of activated GFAP+ astrocytes in the cortex (D) and CD68+ microglia in both cortex and hippocampus"},
      {"measurement": "LAMP2 levels in brain sections compared with WT", "setting": "[2]; chronic daily 50 μg/kg BW, Hgsnat^P304L mice at terminal timepoint", "result": "remained significantly increased"},
      {"measurement": "behaviour in Novel Object Recognition test after single dose", "setting": "[3]", "result": "did not improve behaviour"},
      {"measurement": "effect of N-terminal acetylation on activity and stability of the peptide", "setting": "[4]", "result": "increase the activity and stability of the peptide"},
      {"measurement": "hyperactivity (total distance traveled), Open Field", "setting": "[5]; [7]", "result": "showed absence of these phenotypes; also recorded: show the rescue of all above deficits"},
      {"measurement": "reduced anxiety (time spent in the center), Open Field", "setting": "[5]; [7]", "result": "showed absence of these phenotypes; also recorded: show the rescue of all above deficits"},
      {"measurement": "hyperactivity (total distance traveled), Open Field", "setting": "[5]; [8]", "result": "significantly reduced; also recorded: show rescue of all above deficits"},
      {"measurement": "reduced anxiety (time spent in the center), Open Field", "setting": "[5]; [8]", "result": "significantly reduced; also recorded: show rescue of all above deficits"},
      {"measurement": "Open Field behaviour in WT mice vs saline", "setting": "[5]; WT mice at 4 months", "result": "no difference was observed"},
      {"measurement": "Open Field behaviour in WT mice vs saline", "setting": "[5]; WT mice at 6 months", "result": "No difference in behaviour was observed"},
      {"measurement": "hyperactivity (total distance traveled), Open Field", "setting": "[5]; [9]", "result": "rescues hyperactivity; also recorded: the total traveled distance was reduced; also recorded: Both parameters are normalized"},
      {"measurement": "reduced anxiety (time spent / distance traveled in the center), Open Field", "setting": "[5]; [9]", "result": "rescues hyperactivity and reduced anxiety; also recorded: time spend in the center increased; also recorded: Both parameters are normalized"}
    ]}
  ]
}
